Test results reported in PubChem BioAssay AID328 (DTP/NCI, 2004).
Several values for one entry are separate records, joined by “and”; a condition that tells them apart may be missing. Equal values may be shown once. Toxic doses and inconclusive results are not listed.

Tested on: BDF1 mice, P388 leukemia ip, median survival T/C
Assay: NCI In Vivo Anticancer Drug Screen. Data for tumor model P388 Leukemia (intraperitoneal) in B6D2F1 (BDF1) mice
Settings: endpoint: median survival time, higher = longer survival
In short: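 Antitumour effect was judged in vivo: survival in drug-treated mice, normalised to that of vehicle-dosed controls, gives the reported T/C.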

[1] = dose: 12.5 mg/kg/injection, schedule: Q01DX009 (ip), vehicle: Klucel (hydroxypropylcellulose) (HPC)
[2] = dose: 25.0 mg/kg/injection, schedule: Q01DX009 (ip), vehicle: Klucel (hydroxypropylcellulose) (HPC)
[3] = dose: 25.0 mg/kg/injection, schedule: Q04DX003 (ip), vehicle: Klucel (hydroxypropylcellulose) (HPC)
[4] = dose: 50.0 mg/kg/injection, schedule: Q01DX009 (ip), vehicle: Klucel (hydroxypropylcellulose) (HPC)
[5] = dose: 50.0 mg/kg/injection, schedule: Q04DX003 (ip), vehicle: Klucel (hydroxypropylcellulose) (HPC)
[6] = dose: 200.0 mg/kg/injection, schedule: Q01DX009 (ip), vehicle: Klucel (hydroxypropylcellulose) (HPC)
[7] = dose: 100.0 mg/kg/injection, schedule: Q04DX003 (ip), vehicle: saline
[8] = dose: 200.0 mg/kg/injection, schedule: Q04DX003 (ip), vehicle: saline
[9] = dose: 400.0 mg/kg/injection, schedule: Q04DX003 (ip), vehicle: saline
[10] = dose: 50.0 mg/kg/injection, schedule: Q01DX009 (ip), vehicle: saline with Tween-80
[11] = dose: 100.0 mg/kg/injection, schedule: Q01DX009 (ip), vehicle: saline with Tween-80
[12] = dose: 200.0 mg/kg/injection, schedule: Q01DX009 (ip), vehicle: saline with Tween-80
[13] = dose: 100.0 mg/kg/injection, schedule: Q04DX003 (ip), vehicle: saline with Tween-80
[14] = dose: 25.0 mg/kg/injection, schedule: Q01DX009 (ip), vehicle: saline
[15] = dose: 50.0 mg/kg/injection, schedule: Q01DX009 (ip), vehicle: saline
[16] = dose: 100.0 mg/kg/injection, schedule: Q01DX009 (ip), vehicle: Klucel (hydroxypropylcellulose) (HPC)
[17] = dose: 100.0 mg/kg/injection, schedule: Q04DX003 (ip), vehicle: Klucel (hydroxypropylcellulose) (HPC)
[18] = dose: 200.0 mg/kg/injection, schedule: Q04DX003 (ip), vehicle: Klucel (hydroxypropylcellulose) (HPC)
[19] = dose: 400.0 mg/kg/injection, schedule: Q04DX003 (ip), vehicle: Klucel (hydroxypropylcellulose) (HPC)
[20] = dose: 35.0 mg/kg/injection, schedule: Q01DX009 (ip), vehicle: saline
[21] = dose: 200.0 mg/kg/injection, schedule: Q04DX003 (ip), vehicle: saline with Tween-80
[22] = dose: 400.0 mg/kg/injection, schedule: Q04DX003 (ip), vehicle: saline with Tween-80

In the case of `CS(=O)(=O)OCCC(=O)NCNC(=O)CCOS(C)(=O)=O`, the T/C (dose: 9.0 mg/kg/injection, schedule: Q04DX003 (ip), vehicle: Klucel (hydroxypropylcellulose) (HPC)) is reported as 100 % of control, the T/C (dose: 12.0 mg/kg/injection, schedule: Q04DX003 (ip), vehicle: Klucel (hydroxypropylcellulose) (HPC)) is reported as 113 % of control and the T/C [1] is reported as 150 % of control. For the same molecule, the T/C (dose: 13.0 mg/kg/injection, schedule: Q04DX003 (ip), vehicle: Klucel (hydroxypropylcellulose) (HPC)) was 113 % of control, the T/C (dose: 22.0 mg/kg/injection, schedule: Q01DX009 (ip), vehicle: Klucel (hydroxypropylcellulose) (HPC)) was 156 % of control and the T/C [2] was 172 % of control. The T/C [3] was 163 % of control, the T/C (dose: 33.0 mg/kg/injection, schedule: Q01DX009 (ip), vehicle: Klucel (hydroxypropylcellulose) (HPC)) was 176 % of control and the T/C (dose: 33.0 mg/kg/injection, schedule: Q04DX003 (ip), vehicle: Klucel (hydroxypropylcellulose) (HPC)) was 155 % of control and 171 % of control. For the same molecule, the T/C [4] was 168 % of control and 218 % of control, the T/C [5] was 181 % of control and 185 % of control and 195 % of control and the T/C (dose: 75.0 mg/kg/injection, schedule: Q01DX009 (ip), vehicle: Klucel (hydroxypropylcellulose) (HPC)) was 124 % of control. For the same molecule, the T/C (dose: 75.0 mg/kg/injection, schedule: Q04DX003 (ip), vehicle: Klucel (hydroxypropylcellulose) (HPC)) was 190 % of control and 214 % of control.

`CCOC(=O)CNC(=O)Sc1ccc(C(C)(C)C)cc1` was tested, and the T/C [2] was 121 % of control and the T/C [6] was 108 % of control.

In the case of `COc1ccc(C2CCc3cc(OC)c(OC)cc3C2=O)cc1OC` (centres undefined), the T/C (dose: 20.0 mg/kg/injection, schedule: Q01DX009 (ip), vehicle: saline with Tween-80) is reported as 87 % of control, the T/C (dose: 80.0 mg/kg/injection, schedule: Q01DX009 (ip), vehicle: saline with Tween-80) is reported as 91 % of control and the T/C (dose: 120.0 mg/kg/injection, schedule: Q01DX009 (ip), vehicle: saline with Tween-80) is reported as 87 % of control.

`COC(=O)C1CCN1C(C)(C)C` (centres undefined) was tested, and the T/C [7] was 100 % of control, the T/C [8] was 90 % of control and the T/C [9] was 90 % of control.

With `CN(C)c1ccc(/C=C/c2ccnc3ccc(Br)cc23)cc1` the T/C [10] was 109 % of control, the T/C [11] was 114 % of control and the T/C [12] was 116 % of control.

For `S=c1[nH]nc2n1NC(c1ccoc1)=NN2`, the T/C (dose: 25.0 mg/kg/injection, schedule: Q04DX003 (ip), vehicle: saline with Tween-80) was 122 % of control, the T/C (dose: 50.0 mg/kg/injection, schedule: Q04DX003 (ip), vehicle: saline with Tween-80) was 100 % of control and the T/C [13] was 113 % of control.

For `COc1ccc(CNCCc2ccc(O)c(OC)c2)cc1O`, the T/C [10] was 100 % of control, the T/C [11] was 102 % of control and the T/C [12] was 107 % of control.

With `C/C(=C/c1c(C)[nH]c(=O)[nH]c1=O)C(=O)O` the T/C [14] was 89 % of control, the T/C [15] was 89 % of control and the T/C (dose: 100.0 mg/kg/injection, schedule: Q01DX009 (ip), vehicle: saline) was 96 % of control. The T/C [7] was 101 % of control, the T/C (dose: 200.0 mg/kg/injection, schedule: Q01DX009 (ip), vehicle: saline) was 105 % of control and the T/C [8] was 91 % of control. The T/C [9] was 87 % of control.

In the case of `CCOC(=O)c1ccc(C(=O)OCC)c(Cl)n1`, the T/C [2] is reported as 112 % of control, the T/C [3] is reported as 95 % of control and the T/C [4] is reported as 95 % of control. The T/C [5] was 100 % of control, the T/C [16] was 87 % of control and the T/C [17] was 86 % of control and 91 % of control.

With `O=[N+]([O-])c1ccc(C2OC2c2ccccc2)cc1` (centres undefined) the T/C [4] was 122 % of control, the T/C [16] was 111 % of control and the T/C [17] was 95 % of control and 120 % of control. The T/C [6] was 111 % of control, the T/C [18] was 110 % of control and the T/C [19] was 91 % of control and 110 % of control.

For `Cc1ccc(S(=O)(=O)N=S2CCCC2)cc1`, the T/C [17] was 100 % of control, the T/C [18] was 95 % of control and the T/C [19] was 100 % of control.

In the case of `CB1NN=C(C)c2ccsc21`, the T/C (dose: 6.25 mg/kg/injection, schedule: Q01DX009 (ip), vehicle: saline with Tween-80) is reported as 105 % of control, the T/C (dose: 12.5 mg/kg/injection, schedule: Q01DX009 (ip), vehicle: saline with Tween-80) is reported as 91 % of control and the T/C (dose: 25.0 mg/kg/injection, schedule: Q01DX009 (ip), vehicle: saline with Tween-80) is reported as 95 % of control.

In the case of `O=C(Nc1ccc(Cl)c(Cl)c1)Nc1c(Oc2ccc(Cl)c(Cl)c2)ccc(Cl)c1S(=O)(=O)O`, the T/C (dose: 6.25 mg/kg/injection, schedule: Q01DX009 (ip), vehicle: saline) is reported as 118 % of control, the T/C (dose: 12.5 mg/kg/injection, schedule: Q01DX009 (ip), vehicle: saline) is reported as 109 % of control and the T/C [14] is reported as 104 % of control. For the same molecule, the T/C [20] was 118 % of control, the T/C [15] was 105 % of control and the T/C (dose: 55.0 mg/kg/injection, schedule: Q01DX009 (ip), vehicle: saline) was 113 % of control. For the same molecule, the T/C (dose: 80.0 mg/kg/injection, schedule: Q01DX009 (ip), vehicle: saline) was 111 % of control.

In the case of `CC(=O)[C@H]1CC[C@H]2[C@@H]3CCC4=CC(=O)[C@H](C)C[C@]4(C)[C@@]3(F)C(=O)C[C@]12C`, the T/C [11] is reported as 95 % of control, the T/C [13] is reported as 120 % of control and the T/C [12] is reported as 90 % of control. The T/C [21] was 110 % of control and the T/C [22] was 100 % of control.

For `CCCC[N+](CCCC)=c1cc(-c2ccc(Cl)cc2)ss1`, the T/C (dose: 3.12 mg/kg/injection, schedule: Q01DX009 (ip), vehicle: water) was 100 % of control and 114 % of control, the T/C (dose: 6.25 mg/kg/injection, schedule: Q01DX009 (ip), vehicle: water) was 91 % of control and 120 % of control and the T/C (dose: 12.5 mg/kg/injection, schedule: Q01DX009 (ip), vehicle: water) was 98 % of control and 104 % of control. The T/C (dose: 25.0 mg/kg/injection, schedule: Q01DX009 (ip), vehicle: water) was 100 % of control and 106 % of control, the T/C (dose: 50.0 mg/kg/injection, schedule: Q04DX003 (ip), vehicle: water) was 102 % of control and the T/C (dose: 100.0 mg/kg/injection, schedule: Q04DX003 (ip), vehicle: water) was 93 % of control.

For `CC(C)C1(C(=O)NNC(=O)CCCc2ccc(N(CCCl)CCCl)cc2)OC2(O)CCCCCN2C1=O` (centres undefined), the T/C (dose: 50.0 mg/kg/injection, schedule: Q04DX003 (ip), vehicle: other) was 175 % of control and the T/C (dose: 100.0 mg/kg/injection, schedule: Q04DX003 (ip), vehicle: other) was 220 % of control.

For `CCCCCCCCC(C(=O)c1ccccc1)C(O)(C(F)(F)F)C(F)(F)F` (centres undefined), the T/C [10] was 90 % of control, the T/C [11] was 95 % of control and the T/C [13] was 95 % of control. For the same molecule, the T/C [12] was 109 % of control, the T/C [21] was 115 % of control and the T/C [22] was 115 % of control.

In the case of `O=S(=O)(C=C(N1CCCCC1)N1CCCCC1)Cc1ccccc1`, the T/C (dose: 8.75 mg/kg/injection, schedule: Q01DX009 (ip), vehicle: saline) is reported as 105 % of control, the T/C (dose: 17.5 mg/kg/injection, schedule: Q01DX009 (ip), vehicle: saline) is reported as 115 % of control and the T/C (dose: 26.25 mg/kg/injection, schedule: Q04DX003 (ip), vehicle: saline) is reported as 108 % of control. For the same molecule, the T/C [20] was 105 % of control and the T/C (dose: 52.5 mg/kg/injection, schedule: Q04DX003 (ip), vehicle: saline) was 104 % of control.

`CN(C)c1ccc2c(N(C)C)cc(N(C)C)nc2c1` was tested, and the T/C [1] was 111 % of control, the T/C [2] was 89 % of control and the T/C [4] was 120 % of control.

`CCCCCCCCNC12CC3CC(CC(C3)C1)C2` was tested, and the T/C (dose: 6.25 mg/kg/injection, schedule: Q04DX003 (ip), vehicle: saline) was 104 % of control, the T/C (dose: 12.5 mg/kg/injection, schedule: Q04DX003 (ip), vehicle: saline) was 108 % of control and the T/C (dose: 25.0 mg/kg/injection, schedule: Q04DX003 (ip), vehicle: saline) was 116 % of control. The T/C (dose: 50.0 mg/kg/injection, schedule: Q04DX003 (ip), vehicle: saline) was 100 % of control and the T/C [7] was 108 % of control.
